“And” between values parts separate entries of the source, which are not always exact repeats. Identical values can stand only once.
Columns and labels:
type II diabetics = assay: Short-term experiments with alpha-glucosidase inhibitors and bulk materials: blood sugar increase after test breakfast; settings: for action compared with bulk material: levelling of blood sugar increase after eating; for Hypoglycemia, MG 100, mean value: mean of 6 cases
Protocol: After measurement of the fasting blood sugar in the morning, 20 type II diabetics received a test breakfast (75 g of white bread, 20 g of butter, 40 g of jam or, as a sugar-free variant, 75 g of white bread, 20 g of butter and 40 g of cheese). On the control days, before the test breakfast 75 ml of yoghurt were given, and on the test days the various bulk materials were given in 75 ml of yoghurt. […] After the test breakfast, the blood sugar values were measured at ½ to 1 hour intervals for 2-4 hours. Each short-term experiment was carried out two to three times with the individual subjects. The respective average values are indicated.
The basis for the evaluation is the graphic representation of the blood sugar values as curves. The increasing phase of the blood sugar lasting 1-2 hours is determined planimetrically and considered as a measure of the lower limit of glucose absorption. In the first hour after the test breakfast, under physical quasi-resting conditions the increase in the blood sugar curve ought to reflect the intestinal glucose absorption into the blood almost unadulteratedly on the morning of the experiment in the diabetic differently from in the healthy person. Beyond the first hour, even in most type II diabetics an insulin response commences more or less clearly which levels off the blood sugar increase, or conversely in any case leads to a corresponding underestimation of the glucose absorption. […] The planimetric evaluation of all curves is then extended until achieving the peak of the last curve. […] For practical reasons, we compare the increasing phases of the blood sugar curves under the various experimental conditions (control, after bulk material, in the later experiments also after alpha-glucosidase inhibitors) with one another and calculate from this the degree of hypoglycemia based on the control curve. […] The statistical evaluation, which is possible only in the short-term experiments on account of the amounts of data, is carried out using the student's t test in a paired comparison.
21 patients were investigated: 10 each received acarbose and miglitol, 1 patient first acarbose and then miglitol. The individual dose used was 25-100 mg.
Immediately before the test meals described above, the subjects received either a) 75 ml of yoghurt (control experiment) or b) bulk material in yoghurt (bulk curve) or c) a tablet of acarbose or miglitol and then 75 ml of yoghurt (alpha-GI curve) or d) this medicament 5 minutes before taking bulk material in yoghurt (bulk-plus alpha-GI curve). As described, the blood sugar values were determined before and for 3 hours after the test meal.

normal persons = assay: Side effects in normal persons after 50-75 g of sucrose instead of test breakfast; assay type: in vivo, human; settings: 100 mg
[1] = 50 mg on its own (acarbose 2 cases, miglitol 8 cases)

SMILES | concomitant symptoms (type II diabetics; 25 mg on its own (5 cases)) | concomitant symptoms (type II diabetics; [1]) | Hypoglycemia (decrease in the blood sugar increase after a test breakfast), Alpha-GI (type II diabetics; MG 25 mg, individual patient) | Hypoglycemia (decrease in the blood sugar increase after a test breakfast), Alpha-GI (type II diabetics; MG 50 mg, individual patient) | Hypoglycemia (decrease in the blood sugar increase after a test breakfast), Alpha-GI (type II diabetics; MG 100 mg, individual patient) | action compared with bulk material (type II diabetics) | Hypoglycemia, MG 100 (type II diabetics; miglitol 100 mg on its own, individual patient) | Hypoglycemia, MG 100, mean value (type II diabetics; miglitol 100 mg on its own) [%] | Hypoglycemia, MG 100, mean value (type II diabetics; miglitol 100 mg on its own, listed as miglitol) [%] | patients with semiliquid stools as far as diarrhea (type II diabetics; on its own, short-term experiments) | symptoms after 50-75 g of sucrose (normal persons) | Hypoglycemia (decrease in the blood sugar increase after a test breakfast), Alpha-GI (type II diabetics; AB 50 mg, individual patient) | Hypoglycemia (decrease in the blood sugar increase after a test breakfast), Alpha-GI (type II diabetics; AB 100 mg, individual patient)
OCCN1C[C@H](O)[C@@H](O)[C@H](O)[C@H]1CO [MG, miglitol] | no clear concomitant symptoms | no clear concomitant symptoms | 27% and 47% and 12% and 53% and 49% and 24% | 33% and 40% and 37% and 62% (2×) and 25% and 59% and 71% | 24% and 60% and 80% and 59% and 32% and 66% and 75% and 34% and 73% | considerably stronger action than bulk material | 66% and 75% and 34% and 80% and 59% and 32% | 57.7 | 58 | 4 of 9 patients | abdominal pain and diarrhea occurred |  | 
CC1OC(OC2C(CO)OC(OC3C(CO)OC(O)C(O)C3O)C(O)C2O)C(O)C(O)C1NC1C=C(CO)[C@@H](O)[C@H](O)[C@H]1O (stereo partly shown) [AB, acarbose] |  | no clear concomitant symptoms |  |  |  | considerably stronger action than bulk material |  |  |  |  | abdominal pain and diarrhea occurred | 42% and 50% | 41% and 63% (2×) and 56% and 65% and 6% and 55% and 39% and 58% and 59%
